Source: patent publication US7411069B2 (Hypnion, Inc., priority 2003, dated 2008)
Read-outs that look alike come from different tables or passages of the source.

How the values were obtained:
[1] = system: Crl: CD(SD)IGS BR rats; experiment: Acute rat study (toxicity and MTD, oral gavage); assay type: in vivo
Method: The purpose of this study was to evaluate the toxicity and maximum tolerated dose (MTD) of the test articles when given via oral gavage to rats. Male Crl: CD®(SD)IGS BR rats (3/group) were assigned to 5 groups. At initiation of dosing, animals were approximately 7 weeks old with body weights ranging from 172 to 206 g. Each group received either 50, 100, 150, 200, or 250 mg/kg of HY2901 once daily for 5 days. All surviving animals were sacrificed on Day 6. Assessment of toxicity was based on mortality, clinical observations, and body weight data.

[2] = system: purebred Beagles; experiment: 14-Day dog study with recovery phase; assay type: in vivo
Method: The toxicity and the toxicokinetics of HY2901 when administered daily via oral gavage (Phase 1) or capsules (Phase 2) to dogs for at least 14 days was determined. The reversibility, persistence, or delayed occurrence of observable effects following a 7-day (Phase 1) or 14-day (Phase 2) recovery period was also assessed. Doses of 3, 10, 30, and 70 mg/kg/day were studied.

[3] = Pharmacokinetics in rats; assay type: in vivo, rat; settings: 3 mg/kg
Method: HY2901 was administered to rats, dogs, and cynomolgus monkeys at a dose of 3 mg/kg orally and intravenously. Plasma samples were collected from all species for pharmacokinetic analysis. […] HY2901 is 75% protein bound in rat plasma and 60% protein bound in human plasma.

[4] = system: Crl:CD(SD)IGS BR rats; experiment: 14-Day rat study with recovery; assay type: in vivo
Method: The purpose of this study was to evaluate the toxicity of HY2901 when administered via oral gavage to rats for at least 14 days and to assess the reversibility, persistence, or delayed occurrence of any effects after a recovery period of up to 14 days.
Male and female Crl:CD®(SD)IGS BR rats were assigned to seven groups, four main study groups and three groups for toxicokinetics. Each group received dose preparations containing 0.25% methylcellulose, 400 cps in 200 mM acetate buffer, or 10, 30, or 150 mg of test article/kg of body weight (mg/kg/day) at a dose volume of 5 mL/kg.
Assessment of toxicity was based on mortality, clinical and ophthalmic observations, body weights, food consumption, clinical pathology, organ weights, and macroscopic and microscopic findings. Blood samples were collected for toxicokinetic evaluation.

[5] = In vitro rate of metabolism in human hepatocyte cultures; assay type: in vitro ADME
Method: (§1) Cytochrome P450 inhibition was studied with HY2901 in vitro. […] In addition, the in vitro rate of metabolism in rat, dog, monkey, and human hepatocyte cultures was determined for HY2901.

[6] = system: purebred Beagles; experiment: Acute dog study (toxicity and MTD, escalating oral doses); assay type: in vivo
[7] = system: telemetered Beagle dogs; experiment: ECG and arterial blood pressure in telemetered Beagle dogs; assay type: in vivo, dog
Method: To determine if HY2901 could produce any changes in QT interval, the compound was studied in telemetered Beagle dogs. Dogs were implanted with devices to continuously monitor ECG and arterial blood pressure. Dogs (groups of 4) were studied in a Latin square cross-over design, with each dog receiving 3 different doses and a placebo. Two studies were conducted with doses of 0.3, 1, 3, 10, and 30 mg/kg. […] The tachycardia persisted for 6-8 hours postdose at 0.3 and 1 mg/kg. A ceiling effect to the heart rate increase seemed to exist with heart rates peaking at approximately 150-160 in both the 10 and 30 mg/kg dose groups.

[8] = Excretion in urine of animal species; assay type: in vivo
[9] = In vitro rate of metabolism in rat hepatocyte cultures; assay type: in vitro ADME
Method: as §1

[10] = molecular target: T1, M2 muscarinic receptor (Homo sapiens, UniProt P08172); experiment: M2 binding assay ([3H]-scopolamine, N-methyl chloride displacement)
T1 construct: purchased PerkinElmer, Inc., Wellesley, Mass; host or cells: CHO cells
T1 sequence (P08172 1-466): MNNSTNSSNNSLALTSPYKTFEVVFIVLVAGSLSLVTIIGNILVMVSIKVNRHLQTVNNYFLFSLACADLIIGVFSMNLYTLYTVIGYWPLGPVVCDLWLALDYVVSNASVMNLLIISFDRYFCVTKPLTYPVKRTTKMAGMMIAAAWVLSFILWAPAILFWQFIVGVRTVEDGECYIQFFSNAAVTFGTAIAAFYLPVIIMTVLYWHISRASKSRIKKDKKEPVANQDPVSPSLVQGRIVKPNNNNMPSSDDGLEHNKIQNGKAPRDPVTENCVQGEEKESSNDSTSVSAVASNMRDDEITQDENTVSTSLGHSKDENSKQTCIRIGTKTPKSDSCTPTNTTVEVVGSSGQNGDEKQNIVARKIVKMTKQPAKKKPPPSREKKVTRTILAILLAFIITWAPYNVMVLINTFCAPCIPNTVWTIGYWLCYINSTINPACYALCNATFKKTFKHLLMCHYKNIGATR

[11] = molecular target: T2, M3 muscarinic receptor (Homo sapiens, UniProt P20309); experiment: M3 binding assay ([3H]-scopolamine, N-methyl chloride displacement)
T2 construct: purchased PerkinElmer, Inc., Wellesley, Mass; host or cells: CHO cells
T2 sequence (P20309 whole entry): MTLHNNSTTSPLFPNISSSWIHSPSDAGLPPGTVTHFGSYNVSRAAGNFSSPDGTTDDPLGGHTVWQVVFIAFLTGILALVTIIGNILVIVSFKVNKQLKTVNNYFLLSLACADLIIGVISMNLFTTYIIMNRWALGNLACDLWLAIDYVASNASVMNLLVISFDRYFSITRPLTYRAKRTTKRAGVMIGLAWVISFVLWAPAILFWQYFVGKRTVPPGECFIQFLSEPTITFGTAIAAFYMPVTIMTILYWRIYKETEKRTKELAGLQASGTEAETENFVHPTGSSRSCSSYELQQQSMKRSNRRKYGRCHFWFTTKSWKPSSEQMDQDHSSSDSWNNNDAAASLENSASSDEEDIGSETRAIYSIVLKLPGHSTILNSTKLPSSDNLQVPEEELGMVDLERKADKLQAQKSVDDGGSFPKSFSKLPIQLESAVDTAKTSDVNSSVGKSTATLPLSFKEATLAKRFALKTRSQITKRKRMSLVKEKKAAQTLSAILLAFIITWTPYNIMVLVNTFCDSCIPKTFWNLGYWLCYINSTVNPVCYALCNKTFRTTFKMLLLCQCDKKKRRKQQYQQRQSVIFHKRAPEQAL

[12] = molecular target: T3, M1 muscarinic receptor (Homo sapiens, UniProt P11229); experiment: M1 binding assay ([3H]-scopolamine, N-methyl chloride displacement)
T3 construct: purchased PerkinElmer, Inc., Wellesley, Mass; host or cells: CHO cells
T3 sequence (P11229 1-460): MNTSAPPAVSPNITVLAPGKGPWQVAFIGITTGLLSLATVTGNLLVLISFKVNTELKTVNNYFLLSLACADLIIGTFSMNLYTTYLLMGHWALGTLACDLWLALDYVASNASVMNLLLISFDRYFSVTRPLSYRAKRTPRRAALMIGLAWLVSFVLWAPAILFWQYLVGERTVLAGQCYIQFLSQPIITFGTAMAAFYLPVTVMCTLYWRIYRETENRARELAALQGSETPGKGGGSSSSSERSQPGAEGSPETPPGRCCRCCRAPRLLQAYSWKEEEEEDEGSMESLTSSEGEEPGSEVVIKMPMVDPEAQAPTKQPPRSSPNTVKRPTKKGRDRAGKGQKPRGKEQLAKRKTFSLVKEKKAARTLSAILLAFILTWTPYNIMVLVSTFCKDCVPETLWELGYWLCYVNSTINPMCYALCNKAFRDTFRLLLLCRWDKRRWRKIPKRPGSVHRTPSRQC

[13] = molecular target: hERG channel (Homo sapiens, UniProt Q12809)
Chain of hERG channel (Q12809 whole entry): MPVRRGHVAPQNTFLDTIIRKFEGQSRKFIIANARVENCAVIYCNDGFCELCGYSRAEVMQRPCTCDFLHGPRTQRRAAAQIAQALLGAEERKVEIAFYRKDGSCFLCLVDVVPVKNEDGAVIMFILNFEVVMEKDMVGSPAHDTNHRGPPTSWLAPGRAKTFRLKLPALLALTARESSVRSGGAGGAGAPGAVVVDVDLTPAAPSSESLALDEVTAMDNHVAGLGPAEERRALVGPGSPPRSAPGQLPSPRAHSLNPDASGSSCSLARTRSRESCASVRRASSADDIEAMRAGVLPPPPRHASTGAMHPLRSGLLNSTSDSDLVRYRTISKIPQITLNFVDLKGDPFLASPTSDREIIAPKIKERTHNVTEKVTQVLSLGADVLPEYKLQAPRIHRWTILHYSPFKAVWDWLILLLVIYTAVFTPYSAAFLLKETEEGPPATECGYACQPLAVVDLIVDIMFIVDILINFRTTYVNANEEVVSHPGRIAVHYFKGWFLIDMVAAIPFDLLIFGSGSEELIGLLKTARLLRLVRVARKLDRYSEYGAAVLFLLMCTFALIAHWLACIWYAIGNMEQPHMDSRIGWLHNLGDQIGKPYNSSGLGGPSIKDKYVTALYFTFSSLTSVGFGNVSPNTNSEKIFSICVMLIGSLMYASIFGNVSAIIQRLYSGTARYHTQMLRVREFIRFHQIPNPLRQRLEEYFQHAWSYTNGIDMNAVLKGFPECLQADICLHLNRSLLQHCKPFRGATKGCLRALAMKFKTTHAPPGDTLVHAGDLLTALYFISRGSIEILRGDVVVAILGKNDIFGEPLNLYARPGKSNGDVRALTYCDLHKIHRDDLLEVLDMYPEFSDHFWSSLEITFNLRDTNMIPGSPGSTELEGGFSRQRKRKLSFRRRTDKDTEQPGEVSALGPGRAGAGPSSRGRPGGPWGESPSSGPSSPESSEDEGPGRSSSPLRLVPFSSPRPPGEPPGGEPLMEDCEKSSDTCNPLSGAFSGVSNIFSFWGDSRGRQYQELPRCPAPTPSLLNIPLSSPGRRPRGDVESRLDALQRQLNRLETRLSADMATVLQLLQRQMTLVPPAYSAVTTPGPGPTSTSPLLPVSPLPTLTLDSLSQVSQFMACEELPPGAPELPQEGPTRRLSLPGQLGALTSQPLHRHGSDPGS

[14] = system: male Wistar rats; experiment: SCORE-2000 sleep-wakefulness, locomotor activity and body temperature monitoring; settings: oral, CT-18
[15] = system: male Wistar rats; assay type: in vivo; settings: oral
Method: The Irwin screen can provide useful information on potential side effects of compounds on general physiological and behavioural functions. The screen was conducted by administering the test compounds orally in 0.25% aqueous methylcellulose using male Wistar rats, a frequently used species in such studies and for which background data are readily available.
The Irwin screen tests for numerous parameters in animals that have been administered the test compound. For example, the screen can include: in-cage effects, e.g., dispersion, respiratory rate, locomotor activity, restlessness, fighting, alertness, apathy, and exophthalmus; in-arena effects, e.g., transfer arousal, spatial locomotion, ptosis, startle, tail elevation, piloerection, touch escape, positional passivity, catalepsy, tighting reflex, visual placing, grip strength, pinna, corneal, pain response, and wire manoeuvre; parameters observed in handling, e.g., cyanosis, cutaneous blood flow, hypothermia, body tone, pupil size, light-pupil response, lacrimation, grooming, red staining, salivation, and provoked biting; general scores e.g., fearfulness, irritability, abnormal gait, abnormal body carriage, tremors, twitches, convulsions, bizarre behaviour, writhing, vocalisation, diarrhoea, number of defaecations, number of urinations, moribund, lethality, and abnormalities detected. Further details can be found in Irwin, S; Comprehensive observational assessment: I a. A systematic, quantitative procedure for assessing the behavioural and physiological state of the mouse. […]

[16] = molecular target: T4, H1 histamine receptor (Bos taurus, UniProt P30546); settings: reference compounds; unit inferred; read-out: Ki, H1 binding assay reference compounds; cited from earlier work
T4 construct: the receptors were obtained from bovine cerebellar membrane tissue; from tissue; host or cells: bovine cerebellar membranes
T4 sequence (P30546 whole entry): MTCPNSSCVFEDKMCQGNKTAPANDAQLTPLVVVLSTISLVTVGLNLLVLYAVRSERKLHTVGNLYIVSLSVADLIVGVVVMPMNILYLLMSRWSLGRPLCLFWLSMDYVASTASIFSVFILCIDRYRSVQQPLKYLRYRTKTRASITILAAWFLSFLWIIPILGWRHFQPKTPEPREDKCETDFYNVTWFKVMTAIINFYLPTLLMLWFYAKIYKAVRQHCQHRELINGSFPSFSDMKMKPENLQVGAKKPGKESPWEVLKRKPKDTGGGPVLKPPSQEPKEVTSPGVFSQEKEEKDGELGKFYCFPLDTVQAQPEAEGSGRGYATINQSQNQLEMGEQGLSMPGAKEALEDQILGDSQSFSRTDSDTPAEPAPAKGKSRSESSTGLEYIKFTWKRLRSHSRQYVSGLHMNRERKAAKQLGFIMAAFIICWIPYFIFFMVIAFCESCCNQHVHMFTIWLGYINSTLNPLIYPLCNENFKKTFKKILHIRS

[17] = 50-250 mg/kg once daily for 5 days

CC(C)(CN1CCC(=C2c3ccc(F)cc3COc3ccccc32)CC1)C(=O)O [Compound 49a]
hypoactivity [1, 17]: observed in all rats
incidence and duration of ataxia [1, 17]: dose-response relationship was observed
Day 6 body weights ([1]; two 250 mg/kg rats): slightly decreased
clinical observations ([2]; 3 mg/kg/day, Phase 1): no treatment-related clinical observations
survival ([2]; Beagle, dog, in vivo, 14 days): survived until scheduled sacrifice
clinical pathology data ([2]; Phase 1 and 2): no evidence in the clinical laboratory data of an effect
clinical observations ([2]; Phase 2): treatment-related head tremors, ataxia, hypoactivity, and excessive salivation
absorption after oral administration ([3]; all species (rat, dog, cynomolgus monkey)): rapidly and highly absorbed
Peak plasma levels ([3]; rats, most efficacious dose in the sleep assay): less than 1.5 mM
food consumption ([4]; 150 mg/kg/day rats, Week 1): depression in food consumption
unscheduled deaths ([4]; 10, 30, 150 mg/kg/day): largely restricted to the 150 mg/kg/day groups
increases in Cmax and AUC(0-t) with dose ([4]; 10 to 150 mg/kg/day, except Cmax at 150 mg/kg/day on Day 14): greater than dose proportional
ophthalmic observations ([4]; any group): No ophthalmic lesions
metabolism by hepatocytes [5]: little metabolism
clinical signs ([6]; 25 mg/kg): No clinical signs of toxicity
clinical signs ([6]; 40 mg/kg on Day 5): body tremors, mild to moderate ataxia, excessive salivation and hypoactivity
clinical signs ([6]; 50 mg/kg): Body tremors, mild to severe ataxia, and hypoactivity
clinical signs ([6]; 75 mg/kg): Tremors (entire body, hind limbs, and/or head), mild to moderate ataxia, hypoactivity
effect on body weight ([6]; dog, in vivo): minimal effect
changes in QT or corrected QT interval ([7]; 0.3, 1, 3, 10 and 30 mg/kg, any dose): no changes
heart rate effect ([7]; 0.3-30 mg/kg, intravenous or oral): dose-related sinus tachycardia
persistence of tachycardia postdose ([7]; 0.3 and 1 mg/kg): 6 to 8 h
peak heart rate ([7]; 10 and 30 mg/kg dose groups): 150-160
persistence of sinus tachycardia ([7]; higher doses): 10 to 12 h
blood pressure ([7]; paralleled the tachycardia): slight increase
drug and metabolites in urine [8]: Unchanged HY2901, as well as metabolites, has been found in the urine
metabolism by hepatocytes [9]: extensively metabolized

C[N+]1(C)C2CC(OC(=O)C(CO)c3ccccc3)CC1C1OC12.[Br-] (single isomer, unassigned; (-)) [scopolamine, MethylBr, (−)-scopolamine, methyl-, bromide, reference compound]
Slope, M2 binding curve [10]: −0.89

CC(C)(CCN1CCC(=C2c3ccccc3COc3ccccc32)CC1)C(=O)O [Compound 70a]
Ki [11]: > 10 µM

CC(C)(CN1CCC(=C2c3ccccc3COc3ccccc32)CC1)C(=O)O [Compound 69a]
Ki [11]: > 10 µM
Ki [10]: > 10 µM
Ki [12]: > 10 µM

O=C(O)C1(CCN2CCC(=C3c4ccccc4COc4ccccc43)CC2)CC1 [Compound 70b]
hERG blocking [13]: 50.2%
LUSB ([14]; dose 10 mg/kg): 8.3 min
NREM ([14]; dose 10 mg/kg): 33.7 min
LUSB ([14]; dose 30 mg/kg): 13.8 min
NREM ([14]; dose 30 mg/kg): 43.2 min
Side effects in Irwin screen ([15]; 10 mg/kg dose): clean
Side effects in Irwin screen ([15]; 30 mg/kg dose): clean
Side effects in Irwin screen ([15]; 100 mg/kg dose): some side effects

CN(C)CCCSC(=N)N [dimaprit]
Ki [16]: > 10 µM
